Source: patent publication US11197878B2, “Anti-inflammatory composition including novel quercetin-based compound” (AMOREPACIFIC CORPORATION, priority 2017, dated 2021)

System: skin
Experiment: Test for skin accumulated stimulus, HRIPT (Human repeated insult patch tests)
Format: in vivo
Parameters: key to skin reactivity (ICDRG criteria): −: negative (no response); ±: doubtful or slight erythema, etc.; +: weak reaction (which is accompanied with no phlyctenule), erythema, papule; ++: severe reaction (which is accompanied with phlyctenule), erythema, papule, phlyctenule; +++: strong reaction, bullae reaction
Conditions: for Number of examinees who exhibited ±, +, or ++ reactivity, 1st: 1st patch; for Number of examinees who exhibited ±, +, or ++ reactivity, 2nd: 2nd patch; for Number of examinees who exhibited ±, +, or ++ reactivity, 3rd: 3rd patch; for Number of examinees who exhibited ±, +, or ++ reactivity, 4th: 4th patch; for Number of examinees who exhibited ±, +, or ++ reactivity, 5th: 5th patch; for Number of examinees who exhibited ±, +, or ++ reactivity, 6th: 6th patch; for Number of examinees who exhibited ±, +, or ++ reactivity, 7th: 7th patch; for Number of examinees who exhibited ±, +, or ++ reactivity, 8th: 8th patch; for average reactivity: 9 patches over 3 weeks, 15 examinees, less than 3 is considered a stable composition; for Number of examinees who exhibited ±, +, or ++ reactivity, 9th: 9th patch
Method: HRIPT (Human repeated insult patch tests) was conducted in order to identify skin accumulated stimulus of quercetin3-O-[3-O″-(E)-p-coumaroyl][β-D-glucopyranosyl-(1→3)-O-α-L-rhamnopyranosyl-(1→6)-O-β-D-glucopyranoside] and quercetin3-O-[3-O″-(E)-p-coumaroyl][α-L-rhamnopyranosyl-(1→6)-O-β-D-glucopyranoside] and to calculate the concentration range that can be used in skin. Specifically, 15 healthy adult examinees were randomly selected, and test compositions in which the compounds were respectively comprised in an amount of 0.5 wt. %, 1 wt. %, and 3 wt. % (the compositions for skin, comprising an emulsifying agent, a stabilizer, purified water, etc. in addition to the compounds) were dropped in the amount of 20 μl per chamber (IQ chamber, Epitest Ltd, Finland), and patched on the right site of the upper back of the examinees, and then, after 24 hours, the patch was replaced with a new patch. A total of 9 patches were conducted, three times a week for total 3 weeks, in such manner, the skin reactions before and after patch were examined every time, and the skin reactions until 48 hours after removing the final patch were observed, and the average reactivity was observed. The skin reaction was determined according to the criteria of International Contact Dermatitis Research Group (ICDRG). In the above table, “New Material 31” refers to quercetin3-O-[3-O″-(E)-p-coumaroyl][β-D-glucopyranosyl-(1→3)-O-α-L-rhamnopyranosyl-(1→6)-O-β-D-glucopyranoside], and “New Material 32” refers to quercetin3-O-[3-O″-(E)-p-coumaroyl][α-L-rhamnopyranosyl-(1→6)-O-β-D-glucopyranoside].

- Number of examinees who exhibited ±, +, or ++ reactivity, 1st (0.5 wt. %, line 1 of 3 (±)): 0 number
- Number of examinees who exhibited ±, +, or ++ reactivity, 1st (0.5 wt. %, line 2 of 3 (+)): 0 number
- Number of examinees who exhibited ±, +, or ++ reactivity, 1st (0.5 wt. %, line 3 of 3 (++)): 0 number
- Number of examinees who exhibited ±, +, or ++ reactivity, 2nd (0.5 wt. %, line 1 of 3 (±)): 0 number
- Number of examinees who exhibited ±, +, or ++ reactivity, 2nd (0.5 wt. %, line 2 of 3 (+)): 0 number
- Number of examinees who exhibited ±, +, or ++ reactivity, 2nd (0.5 wt. %, line 3 of 3 (++)): 0 number
- Number of examinees who exhibited ±, +, or ++ reactivity, 3rd (0.5 wt. %, line 1 of 3 (±)): 0 number
- Number of examinees who exhibited ±, +, or ++ reactivity, 3rd (0.5 wt. %, line 2 of 3 (+)): 0 number
- Number of examinees who exhibited ±, +, or ++ reactivity, 3rd (0.5 wt. %, line 3 of 3 (++)): 0 number
- Number of examinees who exhibited ±, +, or ++ reactivity, 4th (0.5 wt. %, line 1 of 3 (±)): 0 number
- Number of examinees who exhibited ±, +, or ++ reactivity, 4th (0.5 wt. %, line 2 of 3 (+)): 0 number
- Number of examinees who exhibited ±, +, or ++ reactivity, 4th (0.5 wt. %, line 3 of 3 (++)): 0 number
- Number of examinees who exhibited ±, +, or ++ reactivity, 5th (0.5 wt. %, line 1 of 3 (±)): 0 number
- Number of examinees who exhibited ±, +, or ++ reactivity, 5th (0.5 wt. %, line 2 of 3 (+)): 0 number
- Number of examinees who exhibited ±, +, or ++ reactivity, 5th (0.5 wt. %, line 3 of 3 (++)): 0 number
- Number of examinees who exhibited ±, +, or ++ reactivity, 6th (0.5 wt. %, line 1 of 3 (±)): 0 number
- Number of examinees who exhibited ±, +, or ++ reactivity, 6th (0.5 wt. %, line 2 of 3 (+)): 0 number
- Number of examinees who exhibited ±, +, or ++ reactivity, 6th (0.5 wt. %, line 3 of 3 (++)): 0 number
- Number of examinees who exhibited ±, +, or ++ reactivity, 7th (0.5 wt. %, line 1 of 3 (±)): 0 number
- Number of examinees who exhibited ±, +, or ++ reactivity, 7th (0.5 wt. %, line 2 of 3 (+)): 0 number
- Number of examinees who exhibited ±, +, or ++ reactivity, 7th (0.5 wt. %, line 3 of 3 (++)): 0 number
- Number of examinees who exhibited ±, +, or ++ reactivity, 8th (0.5 wt. %, line 1 of 3 (±)): 0 number
- Number of examinees who exhibited ±, +, or ++ reactivity, 8th (0.5 wt. %, line 2 of 3 (+)): 0 number
- Number of examinees who exhibited ±, +, or ++ reactivity, 8th (0.5 wt. %, line 3 of 3 (++)): 0 number
- average reactivity (0.5 wt. %): 0
- Number of examinees who exhibited ±, +, or ++ reactivity, 9th (0.5 wt. %, line 1 of 3 (±)): 0 number
- Number of examinees who exhibited ±, +, or ++ reactivity, 9th (0.5 wt. %, line 2 of 3 (+)): 0 number
- Number of examinees who exhibited ±, +, or ++ reactivity, 9th (0.5 wt. %, line 3 of 3 (++)): 0 number
- Number of examinees who exhibited ±, +, or ++ reactivity, 1st (1 wt. %, line 1 of 3 (±)): 0 number
- Number of examinees who exhibited ±, +, or ++ reactivity, 1st (1 wt. %, line 2 of 3 (+)): 0 number
- Number of examinees who exhibited ±, +, or ++ reactivity, 1st (1 wt. %, line 3 of 3 (++)): 0 number
- Number of examinees who exhibited ±, +, or ++ reactivity, 2nd (1 wt. %, line 1 of 3 (±)): 0 number
- Number of examinees who exhibited ±, +, or ++ reactivity, 2nd (1 wt. %, line 2 of 3 (+)): 0 number
- Number of examinees who exhibited ±, +, or ++ reactivity, 2nd (1 wt. %, line 3 of 3 (++)): 0 number
- Number of examinees who exhibited ±, +, or ++ reactivity, 3rd (1 wt. %, line 1 of 3 (±)): 0 number
- Number of examinees who exhibited ±, +, or ++ reactivity, 3rd (1 wt. %, line 2 of 3 (+)): 0 number
- Number of examinees who exhibited ±, +, or ++ reactivity, 3rd (1 wt. %, line 3 of 3 (++)): 0 number
- Number of examinees who exhibited ±, +, or ++ reactivity, 4th (1 wt. %, line 1 of 3 (±)): 0 number
- Number of examinees who exhibited ±, +, or ++ reactivity, 4th (1 wt. %, line 2 of 3 (+)): 0 number
- Number of examinees who exhibited ±, +, or ++ reactivity, 4th (1 wt. %, line 3 of 3 (++)): 0 number
- Number of examinees who exhibited ±, +, or ++ reactivity, 5th (1 wt. %, line 1 of 3 (±)): 0 number
- Number of examinees who exhibited ±, +, or ++ reactivity, 5th (1 wt. %, line 2 of 3 (+)): 0 number
- Number of examinees who exhibited ±, +, or ++ reactivity, 5th (1 wt. %, line 3 of 3 (++)): 0 number
- Number of examinees who exhibited ±, +, or ++ reactivity, 6th (1 wt. %, line 1 of 3 (±)): 0 number
- Number of examinees who exhibited ±, +, or ++ reactivity, 6th (1 wt. %, line 2 of 3 (+)): 0 number
- Number of examinees who exhibited ±, +, or ++ reactivity, 6th (1 wt. %, line 3 of 3 (++)): 0 number
- Number of examinees who exhibited ±, +, or ++ reactivity, 7th (1 wt. %, line 1 of 3 (±)): 0 number
- Number of examinees who exhibited ±, +, or ++ reactivity, 7th (1 wt. %, line 2 of 3 (+)): 0 number
- Number of examinees who exhibited ±, +, or ++ reactivity, 7th (1 wt. %, line 3 of 3 (++)): 0 number
- Number of examinees who exhibited ±, +, or ++ reactivity, 8th (1 wt. %, line 1 of 3 (±)): 0 number
- Number of examinees who exhibited ±, +, or ++ reactivity, 8th (1 wt. %, line 2 of 3 (+)): 0 number
- Number of examinees who exhibited ±, +, or ++ reactivity, 8th (1 wt. %, line 3 of 3 (++)): 0 number
- average reactivity (1 wt. %): 0
- Number of examinees who exhibited ±, +, or ++ reactivity, 9th (1 wt. %, line 1 of 3 (±)): 0 number
- Number of examinees who exhibited ±, +, or ++ reactivity, 9th (1 wt. %, line 2 of 3 (+)): 0 number
- Number of examinees who exhibited ±, +, or ++ reactivity, 9th (1 wt. %, line 3 of 3 (++)): 0 number
- Number of examinees who exhibited ±, +, or ++ reactivity, 1st (3 wt. %, line 1 of 3 (±)): 0 number
- Number of examinees who exhibited ±, +, or ++ reactivity, 1st (3 wt. %, line 2 of 3 (+)): 0 number
- Number of examinees who exhibited ±, +, or ++ reactivity, 1st (3 wt. %, line 3 of 3 (++)): 0 number
- Number of examinees who exhibited ±, +, or ++ reactivity, 2nd (3 wt. %, line 1 of 3 (±)): 0 number
- Number of examinees who exhibited ±, +, or ++ reactivity, 2nd (3 wt. %, line 2 of 3 (+)): 0 number
- Number of examinees who exhibited ±, +, or ++ reactivity, 2nd (3 wt. %, line 3 of 3 (++)): 0 number
- Number of examinees who exhibited ±, +, or ++ reactivity, 3rd (3 wt. %, line 1 of 3 (±)): 0 number
- Number of examinees who exhibited ±, +, or ++ reactivity, 3rd (3 wt. %, line 2 of 3 (+)): 0 number
- Number of examinees who exhibited ±, +, or ++ reactivity, 3rd (3 wt. %, line 3 of 3 (++)): 0 number
- Number of examinees who exhibited ±, +, or ++ reactivity, 4th (3 wt. %, line 1 of 3 (±)): 0 number
- Number of examinees who exhibited ±, +, or ++ reactivity, 4th (3 wt. %, line 2 of 3 (+)): 0 number
- Number of examinees who exhibited ±, +, or ++ reactivity, 4th (3 wt. %, line 3 of 3 (++)): 0 number
- Number of examinees who exhibited ±, +, or ++ reactivity, 5th (3 wt. %, line 1 of 3 (±)): 0 number
- Number of examinees who exhibited ±, +, or ++ reactivity, 5th (3 wt. %, line 2 of 3 (+)): 0 number
- Number of examinees who exhibited ±, +, or ++ reactivity, 5th (3 wt. %, line 3 of 3 (++)): 0 number
- Number of examinees who exhibited ±, +, or ++ reactivity, 6th (3 wt. %, line 1 of 3 (±)): 0 number
- Number of examinees who exhibited ±, +, or ++ reactivity, 6th (3 wt. %, line 2 of 3 (+)): 0 number
- Number of examinees who exhibited ±, +, or ++ reactivity, 6th (3 wt. %, line 3 of 3 (++)): 0 number
- Number of examinees who exhibited ±, +, or ++ reactivity, 7th (3 wt. %, line 1 of 3 (±)): 0 number
- Number of examinees who exhibited ±, +, or ++ reactivity, 7th (3 wt. %, line 2 of 3 (+)): 0 number
- Number of examinees who exhibited ±, +, or ++ reactivity, 7th (3 wt. %, line 3 of 3 (++)): 0 number
- Number of examinees who exhibited ±, +, or ++ reactivity, 8th (3 wt. %, line 1 of 3 (±)): 0 number
- Number of examinees who exhibited ±, +, or ++ reactivity, 8th (3 wt. %, line 2 of 3 (+)): 0 number
- Number of examinees who exhibited ±, +, or ++ reactivity, 8th (3 wt. %, line 3 of 3 (++)): 0 number
- average reactivity (3 wt. %): 0
- Number of examinees who exhibited ±, +, or ++ reactivity, 9th (3 wt. %, line 1 of 3 (±)): 0 number
- Number of examinees who exhibited ±, +, or ++ reactivity, 9th (3 wt. %, line 2 of 3 (+)): 0 number
- Number of examinees who exhibited ±, +, or ++ reactivity, 9th (3 wt. %, line 3 of 3 (++)): 0 number
- skin reactivity (ICDRG criteria) (within the range of contents 0.5 wt. %, 1 wt. %, 3 wt. %): −
SMILES: C[C@@H]1O[C@@H](OC[C@H]2O[C@@H](Oc3c(-c4ccc(O)c(O)c4)oc4cc(O)cc(O)c4c3=O)[C@H](O)[C@@H](OC(=O)/C=C/c3ccc(O)cc3)[C@@H]2O)[C@H](O)[C@H](O)[C@H]1O [New Material 32, quercetin3-O-[3-O″-(E)-p-coumaroyl][α-L-rhamnopyranosyl-(1→6)-O-β-D-glucopyranoside]]
